Results on 8 molecules are retold here after patent US6440997B2, “−E-2-(3,4-dichlorocinnamyl)-1-cyclopropylmethylpiperidine, and its antidiarrhoeal use” (Warner-Lambert Company, priority 1997, dated 2002).

Series [1] deals with diarrhoea induced by the thermostable toxin of E. coli. In words: Diarrhoea induced by the thermostable toxin of E. coli in mice. The class given is in vivo. The following applies: Escherichia coli, po, p.o. 1 h before toxin 600 U/mouse p.o., faecal water at 120 min, read-out: Inhibitory activity ED50, E. coli toxin diarrhoea. As to the method:
(§1) b)—diarrhoea induced by the thermostable toxin of E. coli: Nourished male NMRI mice (30-35 g) are weighed and placed in individual cages previously covered with white paper allowing the viewing of the faecal matter voided. The faeces are recovered as soon as voided and are brought together, by periods of 30 min, for 120 min. The faeces thus brought together are weighed before (fresh weight) and after (dry weight) drying at 120° C. for 24 h. The quantity of water present in the faeces is calculated as the difference (fresh weight—dry weight). The thermostable toxin of Escherichia coli (Sigma, E5763) is administered by the oral route at time zero at a dose of 600 U/mouse. The animals of the control batch receive, at time zero, an oral administration of saline. The administration of the test products is carried out by the oral route 1 h before the administration of the toxins.

A further series deals with sigma receptors (Rattus norvegicus, UniProt Q9R0C9). In words: Affinity for sigma receptors: displacement of (+)[3H]-SKF 10,047 from rat brain membrane preparation. The following applies: σ affinity: IC50, displacement of (+)[3H]-SKF 10,047, rat brain membrane preparation.
Sequence of sigma receptors (Q9R0C9 whole entry): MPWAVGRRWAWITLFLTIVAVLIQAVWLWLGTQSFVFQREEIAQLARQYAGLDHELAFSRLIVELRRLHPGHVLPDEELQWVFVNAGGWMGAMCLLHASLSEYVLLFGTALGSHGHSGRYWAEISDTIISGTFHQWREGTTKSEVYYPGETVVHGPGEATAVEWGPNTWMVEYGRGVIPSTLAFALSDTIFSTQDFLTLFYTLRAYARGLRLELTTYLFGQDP
Series [2] deals with intestinal secretion induced by cholera toxin. In words: animal or person. The conditions noted are these: for ED50: Rattus norvegicus, read-out: Inhibition of intestinal secretion induced by cholera toxin: ED50. It counts as in vivo, rats.
Series [3] deals with diarrhoea induced by the A and B toxins of C. difficile. In words: Diarrhoea induced by the A and B toxins of C. difficile in mice. The following applies: Clostridioides difficile, po, p.o. 1 h before A and B toxins 6 ng/mouse p.o., faecal water at 120 min, read-out: Inhibitory activity ED50, C. difficile toxins diarrhoea. The class given is in vivo. Here is the method:
as §1
c)—diarrhoea induced by the A and B toxins of C. difficile: the experimental protocol, the calculation and the expression of the results are identical to those described above. The A and B toxins of C. difficile are administered by the oral route at time zero at a dose of 6 ng/mouse.

Series [4] deals with diarrhoea induced by Salmonella lipopolysaccharide (LPS). In words: Diarrhoea induced by Salmonella lipopolysaccharide (LPS) in mice. The following applies: for ED50: Salmonella, in Mus musculus, read-out: Inhibitory activity ED50, Salmonella LPS diarrhoea; for Inhibition of diarrhoea (%): Salmonella LPS.
Series [5] concerns inflammatory diarrhoea caused by PGE2. The following applies: cited from earlier work.
A short description of series [6]: Toxicity study in mice by the oral route. It counts as in vivo. As to the method:
In animals, the toxicity study was carried out in mice by the oral route. No mortality was noted up to the strongest dose studied, namely 300 mg/kg. No toxic symptoms were evident at doses lower than 100 mg/kg. Starting from this dose, symptoms were observed such as respiratory depression, trembling, convulsions, a state of prostration or of lethargy which were reversible in a lapse of time of 24 hours after treatment.

For another series, the system named is transit. In words: Effect on the transit. It counts as in vivo. The conditions noted are these: oral route, mice.

For orientation: ED50 means the midpoint of the dose-response relation. As usually defined, the IC50 is the concentration needed to halve the response being measured. Read a high IC50 as lower potency.

Molecules are shown by their SMILES.

On to `Clc1ccc(C=CCC2CCCCN2CC2CC2)cc1Cl` (racemic) [(+/−) parent racemate, racemic E-2-(3,4-dichlorocinnamyl)-1-cyclopropylmethylpiperidine], for which the ED50 in series [1] was 0.077 mg/kg; in series [2] it was 1.9 mg/kg; in series [3] it was 0.058 mg/kg; in series [4], 0.038 mg/kg. Further, at sigma receptors, the IC50 amounted to 44.1 nM.

As for `Clc1ccc(/C=C/CC2CCCCN2CC2CC2)cc1Cl` (single isomer, unassigned; (+)) [(+)E-2-(3,4-dichlorocinnamyl)-1-cyclopropylmethylpiperidine], the IC50 at sigma receptors came out at 21.8 nM.

Consider `CCC(C/C=C/c1ccccc1)(c1ccccc1)N(C)CC1CC1` (single isomer, unassigned; (+)) [igmesine, (+)-N-cyclopropylmethyl-N-methyldiphenyl-1,4-ethyl-1-buten-3-yl-1-amine], for which the ED50 in series [1] turned out to be 1.72 mg/kg; in series [3], 1.45 mg/kg; in series [4], 0.42 mg/kg. Further, the “Delay of the appearance of the diarrhoea” value in series [5] (30 mg/kg i.p., co-administered with PGE2, mice) is listed as “approximately 15 min”. Moreover, the “Inhibitory effect on PGE2 diarrhoea by the oral route” value in series [5] (60 mg/kg oral route, mice) is on record as “zero”.

With `C(=C\c1ccccc1)/CC1CCCN1CC1CC1` (single isomer, unassigned; (-)) [Ex. 1.3, (−)E-2-cinnamyl-1-cyclopropylmethylpyrrolidine], the ED50 in series [4] is 0.002 mg/kg. Besides, the “Inhibition of diarrhoea (%)” value is 63.8% in series [4] (dose 0.003 mg/kg p.o., mice, 0.003 mg/kg); 78.8% in series [4] (dose 0.01 mg/kg p.o., mice); 46.7% in series [4] (dose 0.03 mg/kg p.o., mice, 0.03 mg/kg).

With `C(=C\c1ccccc1)/CC1CCCCN1CC1CC1` (single isomer, unassigned; (-)) [Ex. 2A.3, (−)E-2-cinnamyl-1-cyclopropylmethyl-piperidine], the “Inhibition of diarrhoea (%)” value worked out at 45% in series [4] (dose 0.00003 mg/kg p.o., mice, 3e-05 mg/kg); 65.8% in series [4] (dose 0.0001 mg/kg p.o., mice); 36.8% in series [4] (dose 0.001 mg/kg p.o., mice, 0.001 mg/kg).

For the molecule `Clc1ccc(/C=C/CC2CCCCN2CC2CC2)cc1Cl` (single isomer, unassigned; (-)) [eutomer (I), (−)E-2-(3,4-dichlorocinnamyl)-1-cyclopropylmethylpiperidine], the “Dose up to which no mortality was noted (strongest dose studied)” value in series [6] was at least 300 mg/kg. Moreover, the “Dose from which toxic symptoms were observed (none at lower doses)” value in series [6] (respiratory depression, trembling, convulsions, prostration or lethargy, reversible in 24 hours) is reported as at least 100 mg/kg. For the same molecule, the ED50 in series [1] is 0.019 mg/kg; in series [2] it was 0.038 mg/kg; in series [3], below 0.001 mg/kg; in series [4], 0.0056 mg/kg. The same molecule displayed an IC50 on sigma receptors of 17.9 nM. Further, the “times more active than the racemate” value in series [2] (rat, in vivo, po) is on record as around 50 times. In addition, the “Inhibition of diarrhoea (%)” value was 46.1% in series [4] (dose 0.003 mg/kg p.o., mice, listed as compound of the invention, 0.003 mg/kg); 59.7% in series [4] (dose 0.01 mg/kg p.o., mice); 59.5% in series [4] (dose 0.03 mg/kg p.o., mice); 69.5% in series [4] (dose 0.1 mg/kg p.o., mice). Moreover, the “times more active than acetorphan” value in series [4] (oral route, mice, diarrhoea caused by LPS) is “more than 6000 times”. Also, in the series on transit, the “Action on the transit” value was “without acting on the transit”.

In the case of `CC(=O)SCC(Cc1ccccc1)C(=O)NCC(=O)OCc1ccccc1` (stereo not drawn) [acetorphan], the ED50 in series [4] stood at 34 mg/kg.

For `CN(C)C(=O)C(CCN1CCC(O)(c2ccc(Cl)cc2)CC1)(c1ccccc1)c1ccccc1` [loperamide], the ED50 in series [1] came to 3.92 mg/kg; in series [3] it was 4.27 mg/kg; in series [4] it was 0.37 mg/kg.
